{
  "source": "patent US20120202825A1",
  "about": "“Soluble Salts of Thieno [2,3-d] Pyrimidine Derivatives” (priority 2011, published 2012)",
  "key": {"[1]": {"assay": "Storage at 40° C./75% RH (XRPD, HPLC purity, colour)", "format": "physicochemical", "details": "4 weeks at 40° C./75% RH under ambient light conditions"}, "[2]": {"tested_on": "stress-induced accelerated colonic transit", "assay": "Water avoidance stress (WAS) fecal pellet output, model of increased colonic transit", "format": "in vivo, rat", "protocol": "Preliminary testing in the water avoidance stress model confirmed that there exists an association between stress and altered colonic motility. Fecal pellet output was measured by counting the total number of fecal pellets produced during 1 hour of WAS. Using the WAS model, the effect of MCI-225 was compared to the effects of ondansetron (5-HT3 antagonist) or nisoxetine (noradrenaline reuptake inhibitor—NARI) to affect fecal pellet output.\nAdult male F-344 rats, supplied by Charles River Laboratories and weighing 270-350 g, were used to complete this study. The rats were housed 2 per cage under standard conditions. Following one to two weeks of acclimatization to the animal facility, the rats were brought to the laboratory and handled daily for another week to acclimatize them to laboratory conditions and to the research associate who performed the studies. All procedures used in this study were approved in accordance with facility standards.\nAll rats underwent sham stress (1-hour in stress chamber without water) for 2-4 consecutive days before undergoing WAS (sham was performed until rats produced 0-1 pellet per hour for 2 consecutive days). At the end of the 1-hour stress period, the fecal pellets were counted and recorded.\nWAS causes an acceleration of colonic transit, which can be quantified by counting the number of fecal pellets, produced during the stress procedure. Rats were placed for 1-hour into a stress chamber onto a raised platform 7.5 cm×7.5 cm×9 cm (L×W×H) in the center of a stress chamber filled with room temperature water 8 cm in depth. The stress chamber was constructed from a rectangular plastic tub (40.2×60.2×31.2 cm).\nControl drugs for this study were ondansetron and nisoxetine. Ondansetron was supplied from APIN Chemicals LTD. Nisoxetine was supplied by Tocris. MCI-225 was provided by Mitsubishi Pharma Corp. All drugs were dissolved in a vehicle of 100% propylene glycol (1,2-propanediol) by sonicating for a period of 10 minutes. […]\nStatistical significance was assessed using one-way ANOVA followed by Tukey post-test. […]"}, "small intestinal transit": {"tested_on": "small intestinal transit", "assay": "Small Intestinal Transit Rodent Model (charcoal meal)", "format": "in vivo, rat", "protocol": "Following an overnight fast, rats were brought to the laboratory in their home cages and received an i.p. injection of one of the following: […] Control rats received no treatment. The treated rats were placed back in the home cages and after 30 min, were fed a 2 mL charcoal meal via an oral gavage. Small intestinal transit was measured following 15 min test-period. Each rat was placed briefly in a glass chamber with IsoFlo for anesthesia and sacrificed. The stomach and the small intestine were removed and the total length of the small intestine was measured. Transit was then measured as the distance that the charcoal meal had traveled along the small intestine and expressed as % of the total length. Animals were randomly assigned to experimental groups and experiments were performed as illustrated in Table 3. Ondansetron was supplied from APIN Chemicals LTD. […] MCI-225 was provided by Mitsubishi Pharma Corp. All drugs were dissolved in a vehicle of 100% propylene glycol (1,2-Propanediol) by sonicating for 10 min. Propylene glycol was obtained from Sigma Chemical Co. Ondansetron, a 5-HT3-receptor antagonist was dosed i.p. at 1, 5, and 10 mg/kg. […] All doses were delivered in a final volume of 200 μL. Animals in the vehicle control group received 200 μL of 100% Propylene glycol and animals in the normal control group were untreated. Adult male F-344 rats (230-330 g) were used in the study. The rats were housed 2 per cage under standard conditions. The animals were fed a standard rodent diet and food and water were provided “ad libitum”. Rats were allowed to acclimatize to the animal facility for one week prior to the transit experiments. […] The distance traveled by the charcoal meal was quantified as a percent of the small intestinal length, using the following equation: Transit(%)=cm traveled by meal/cm total small intestinal length×100 […] […] Differences between individual dose groups within treatments and comparisons between drug-treated and vehicle-treated groups were determined using an unpaired t test considering that when % is used as a relative unit, t-statistic is relevant. […]"}, "cisplatin-induced emesis": {"tested_on": "cisplatin-induced emesis", "assay": "Cisplatin-induced emesis in the ferret", "format": "in vivo, ferret (Mustela putario furo)", "details": "5 mg/kg and 10 mg/kg i.p.", "protocol": "Adult male ferrets (Mustela putario furo) weighing 1200-1880 g were purchased from Triple F Farms (Sayre, Pa.) and housed in individual cages at standardized conditions (12:12 h light/dark cycle and 21-23° C.). Prior to the experiments, the ferrets were allowed a 7-10 day acclimatization period to the animal facility. The ferrets were fed a carnivore diet with free access to food and water throughout the course of the study. The use of the ferret model of emesis and the drug treatment were preapproved in accordance with facility standards. A cisplatin solution was prepared by adding preheated (70° C.) saline to cisplatin powder (Sigma-Aldrich Co.) and stirring or sonicating at 40° C. until dissolved. Following administration of the cisplatin and either MCI-225, ondansetron or vehicle alone, the occurrence of retching and vomiting was monitored for a period of 6 hours. Retching was defined as the number of forceful rhythmic contractions of the abdomen occurring with the animal in characteristic posture, but not resulting in the expulsion of upper gastrointestinal tract contents (Watson et al., British Journal of Pharmacology, 115(1): 84-94 (1994)). […] The latency of the retching or vomiting response and the number of episodes were recorded for each animal and summarized for each experimental group (Wright et al., Infect. Immun., 68(4): 2386-9 (2000)). […]"}, "[3]": {"tested_on": "acetic acid-induced colonic hypersensitivity", "assay": "Visceromotor response to colorectal distension, acetic acid-induced colonic hypersensitivity", "format": "in vivo, rat", "protocol": "A 10 min recovery was allowed between distensions.\nAdult male rats were used in the study.\nTen minute recovery periods were allowed following each distension.\nStatistical significance of the treatment groups was assessed using one-way ANOVA followed by Tukey post-test. […] (*) p<0.05, (**) p<0.01, (***) p<0.001"}},
  "data": [
    {"compound": "4-(2-fluorophenyl)-6-methyl-2-(piperazin-1-yl)thieno[2,3-d]pyrimidine hydrochloride [MCI-225]", "values": [
      {"measurement": "colour of material surface after storage", "setting": "[1]", "value": "gone yellow"}
    ]},
    {"compound": "CNCCC(Oc1ccccc1OC)c1ccccc1", "note": "(stereo not drawn) [Nisoxetine]", "values": [
      {"measurement": "WAS-induced fecal pellet output during 1 hour", "setting": "[2]; rats, 3, 10 and 30 mg/kg i.p.", "value": "reduced by all doses"},
      {"measurement": "fecal pellets produced during WAS compared to the vehicle treated group", "setting": "[2]; rats, 10 and 30 mg/kg i.p.", "value": "significantly fewer"},
      {"measurement": "small intestinal transit", "setting": "small intestinal transit; rats, 30 mg/kg i.p.", "value": "almost completely inhibited"},
      {"measurement": "small intestinal transit", "setting": "small intestinal transit; rats, 3 or 10 mg/kg i.p.", "value": "tendency to decrease"}
    ]},
    {"compound": "Cc1nccn1CC1CCc2c(c3ccccc3n2C)C1=O", "note": "(stereo not drawn) [Ondansetron]", "values": [
      {"measurement": "stress-induced fecal pellet output during 1 hour of WAS", "setting": "[2]; rats, 1, 5 and 10 mg/kg i.p.", "value": "dose-dependent inhibition"},
      {"measurement": "latency of the first emetic response following cisplatin treatment", "setting": "cisplatin-induced emesis", "value": "increase in the latency"},
      {"measurement": "number of emetic events induced by cisplatin", "setting": "cisplatin-induced emesis", "value": "dose-dependently reduced"},
      {"measurement": "small intestinal transit", "setting": "small intestinal transit; rats, 1, 5 or 10 mg/kg i.p.", "value": "significant reduction"},
      {"measurement": "responses to moderate (30 mmHg) and high (60 mmHg) intraluminal pressure", "setting": "[3]; rats, 10 mg/kg i.p. (highest dose)", "value": "did not abolish the responses"},
      {"measurement": "behavioral activity of the rats", "setting": "[3]; rats, 1, 5 or 10 mg/kg i.p.", "value": "No significant changes"},
      {"measurement": "number of abdominal contractions (visceromotor response to colorectal distension)", "setting": "[3]; rats, 1, 5 or 10 mg/kg i.p., all distension pressures, vs vehicle", "value": "dose-dependent decrease"}
    ]}
  ]
}
